# Data from patent US7935532B2, “DWF4 polynucleotides, polypeptides and uses thereof” (Arizona Board of Regents for and on behalf of Arizona State …, priority 1999, dated 2011).
# How the values were obtained:
# Type in all cases: in vivo, Arabidopsis thaliana
# [1] = test system: wild-type and dwf4 seedlings; test: Auxin response of seedlings on vertically oriented agar plates with 2,4-D
# Procedure: (§1) Gibberellic acid (GA) response was assayed on plants grown individually in 5.7-cm pots. Once inflorescences reached 1 to 2 mm in height, they were sprayed weekly with 1 mM GA3 (Sigma). Control plants were sprayed with water. One week after the third spraying, plants were collected, and the length of the main stem was measured between the top of the rosette and the base of the most distal pedicel; 13 to 18 plants of each line were measured per treatment. Auxin response was tested by growing seedlings for 10 days under 16 hr of light on vertically oriented agar plates containing various concentrations of 2,4-D (Gibco, Grand Island, N.Y.). Genetic interaction with the hy2 mutation was tested by growing seedlings under continuous light for 7 days. Brassinolide (BL) response was determined in liquid culture, as described by Clouse et al. (1993) supra, except that three or four seedlings were grown in each well of a 24-well culture plate for 7 days. Measurements were taken for 10 to 20 seedlings for each genotype and condition, under a dissection microscope fitted with an ocular micrometer.
# Auxin can also stimulate cell elongation. This effect is especially visible in young seedlings (Klee and Estelle, supra). […] Higher concentrations of auxin were inhibitory for both wild-type and dwf4 seedlings, and lower concentrations had no effect. In view of the inhibition of root growth, it is clear that dwf4 is not auxin resistant; rather, its elongation response is compromised.
# [2] = test system: dwf4 seedlings; test: Feeding of BR biosynthetic intermediates to dwf4 seedlings in liquid media (rescue, dose-response); settings: for rescue of the light-grown dwf4 phenotype: liquid media; for response of dwf4 seedlings in dose-response experiment in the dark: dark-grown, 6-oxoCN 10^−8 to 3×10^−6 M, 6-deoxoCT high concentrations
# Procedure: In view of the results described above, we hypothesized that DWF4 mediates one or more of several steroid hydroxylation steps in the BR biosynthetic pathway. To test this, dwf4 was grown on all of the available biosynthetic intermediates in the BR biosynthetic pathways and examined to ascertain which intermediates could rescue the dwarf phenotype. In addition to the intermediates belonging to the early C-6 oxidation and late C-6 oxidation pathways (Choi et al. (1997), supra), 22α-hydroxycampesterol (22-OHCR), 6α-hydroxycastasterone (6-OHCT) (Takatsuto et al. (1997) J. Chem. Res. (synop.) 11:418-419), and […] (S. Takatsuto, T. Watanabe, T. Noguchi, and S. Fujioka, unpublished data) were synthesized and tested.
# Germinated seedlings were transferred to media supplemented with one of the intermediates or BL to pinpoint the step catalyzed by DWF4. […] In addition, the rescued seedlings were less green than the dwarfs. These experiments were conducted in liquid media. Feeding experiments performed in the dark yielded similar results.
# However, on CT the overall morphology of dwf4 was essentially rescued to wild-type phenotype at 3×10^−7 M and higher, whereas with 6-deoxoCT, rescue occurred with as little as 10^−7 M and may have even been inhibitory at higher concentrations. Of particular interest is the more dramatic response of the epicotyls versus the smaller response of the hypocotyls to CT. This same phenomenon was true for seedlings treated with >10^−7 M 6-deoxoCT.
# A higher concentration of CT for dark-grown seedlings, compared with light-grown seedlings, 3×10^−6 M (FIG. 5B), was required to convert the hypocotyl to a length similar to that of the wild type.
# [3] = test system: 6-week-old dwf4 plants; test: Treatment of soil-grown mature dwf4 plants with BR intermediates and BL (pedicel elongation); settings: 10^−6 M, compared with CT and TE at 10^−5 M
# Procedure: To determine whether the results of the seedling feeding experiments could be applicable to soil-grown mature plants, 6-week-old dwf4 plants were treated with BR intermediates and BL. Concentrations of applied intermediates were adjusted empirically to optimize responses. Consistent with the results obtained from the seedlings experiments, only 22α-hydroxylated compounds can rescue the dwf4 phenotype. The elongation response was only observed in the young tissues of the inflorescence, regardless of whether the BRs were applied locally or sprayed over the entire plant. In contrast to the striking elongation of the peduncles and pedicels, fertility was not restored by BR treatment. The sterility in dwf4 is hypothesized to be mechanical, which means that the filaments are shorter than the carpels such that the pollen is shed onto the ovary walls rather than onto the stigmatic surface. In fact, if dwf4 plants are hand pollinated using […], fertility increases.
# [4] = test system: wild-type and dwf4 seedlings; test: GA response of seedlings germinated on GA (hypocotyl elongation)
# Procedure: The conditions used for plant growth were essentially as described previously (Feldmann (1991) Plant J. 1:71-82; Forsthoefel et al. (1992) Aust. J. Plant Physiol. 19:353-366), except that agar-solidified medium contained 0.5% sucrose. Seedlings up to 2 weeks of age ([…] of age for dark-growth experiments) were grown on 0.9% agar-solidified medium containing 1×Murashige and Skoog 1962 salts (Murashige, T., and Skoog, F. (1962) Physiol. Plant, 15:473-497) and 0.5% sucrose (w/v) and cold treated (4° C.) for 2 days in the dark before transfer to the light (24 hr light; 80 μmol M^−2 sec^−1); older plants were grown in potting soil. The plates were sealed with Parafilm (American National Can Co., Chicago, Ill.) for the entire experiment. For nucleic acid extraction, genetic analysis, and other experiments in which mature plants were required, seeds were sown on Metromix 350 (Grace Sierra, Milpitas, Calif.) presoaked with distilled water. The pots were covered with plastic wrap and cold treated (4° C.) for two days before transfer to a growth chamber (16:8, light [240 μmol m^−2 sec^−1]:dark; 22 and 21° C., respectively, and 75 to 90% humidity). The plastic wrap was removed 5 days after germination, and the pots were subirrigated in distilled water as required. Germination of seeds for dark growth experiments was induced by overnight exposure of the seeds to light immediately after removing the plates from incubation at 4° C. The dwf4-1 and dwf4-2 mutations were in the Arabidopsis thaliana ecotype Wassilewskija (Ws-2) background; the dwf4-3 and dwf4-4 mutations were in the Enkheim (En-2) background.
# Of the endogenous (hormonal) signals that might be deficient in dwarf plants, an obvious candidate is GA, because gibberellin-deficient mutants are shorter in stature than are the wild-type plants (Koommeef and Van der Veen, supra). Our results, however, indicate that dwf4 is not defective in the synthesis of gibberellins. […] Similar results were obtained when soil-grown plants were sprayed with 1 mM GA once inflorescences first became visible: dwf4 inflorescence stems elongated by only 28% above the untreated controls, whereas those of the wild type elongated by 45% above the untreated controls. Mutants that owe their reduced stature to decreased levels of endogenous gibberellins can be fully rescued by added hormone (Koornneef and Van der Veen, supra; Talon et al., supra). In addition, dwf4 seeds germinate in the absence of exogenously supplied GA.
# [5] = test system: wild-type and dwf4 plants; test: GA response of soil-grown plants sprayed with GA (inflorescence stem length)
# Procedure: as §1
# Of the endogenous (hormonal) signals that might be deficient in dwarf plants, an obvious candidate is GA, because gibberellin-deficient mutants are shorter in stature than are the wild-type plants (Koommeef and Van der Veen, supra). […]
# [6] = test system: DWF4 promoter (D4GL); test: DWF4-promoter:GUS (D4GL) activity in seedlings supplied with hormone
# Excerpt: Two promoter constructs were used for the DWF4-promoter:GUS(D4G) analysis. For promoter fusions, polymerase chain reaction (PCR) products spanning 1.1 kb DNA upstream of the translation initiation site were amplified using primers D4XLINIT (5′-[…]-3′) (SEQ ID NO:16) and a T7 primer (5′[…]-3′) (SEQ ID NO:17). For template for PCR, a DWF4 genomic clone subcloned into pBluescript SK-vector (Stratagene La Jolla, Calif.) was used as described herein. The PCR products were restricted with SalI and BamHI, and ligated into the same restriction site of a promoterless GUS vectors pBI101; this 1.1 kb promoter:GUS construct as named pD4GL. For the pD4GS construct, pD4GL was digested with HindIII, the small restriction fragment was removed, and the remaining vector with the partial promoter was self-ligated. The constructs were introduced into Agrobacterium strain GV3101 through electroporation.
# For histochemical analysis of the D4GL plants, seeds were plated on M&S plates and grown in the dark and light. Seedlings were harvested at the designated dates and stained overnight using a substrate mixture (0.1 M NaPO4, pH 7, 10 mM EDTA, 0.5 mM K3Fe(CN)6, 0.5 mM K4FE(CN)6, 1 mM X-glucuronide, and 0.1% Triton X-100). Seedlings cleared with 90% ethanol were rehydrated before taking pictures using a Stemi SV11 dissecting microscope (Zeiss, N.Y.).
# Since DWF4 is proposed to be a key enzyme in the BR biosynthetic pathway, DWF4 transcription could be regulated by an end-product feedback mechanism. To this end, D4GL was expressed in different genetic backgrounds including two BR deficient mutants, dwf7-1 and dwf8-1, and a BR-enriched line, AOD4. GUS activity was increased in dwf7-1 and dwf8-1 but decreased in AOD4 lines. DWF7 is a C-5 desaturase that acts in the sterol specific part of the pathway. D4GL activity in dwf7-1 was found in the same tissues as wild type but, dwf8-1 is defective in a BR biosynthetic step downstream of CPD. […]
# [7] = test system: wild-type seedlings; test: Hypocotyl and root length of wild-type seedlings supplemented with epi-BL; settings: light-grown wild type, 10^−6 M epi-BL, 12 days
# Procedure: To compare the phenotypic effects resulting form the endogenous and exogenous addition of BRs, the length of roots and hypocotyls of 16 seedlings of dwf4, wild-type controls, wild-type plants supplemented with 10^−6 M epi-BL, and two independent AOD4 lines, grown for 12 days in the light or dark was measured. […] These characteristic responses of wild-type plants to epi-BL treatment were similar in two independent AOD4 lines. […] Inhibition of root growth was also obvious in the AOD4 lines. Furthermore the increased hypocotyl length and reduced root length were consistently observed in 15 independent transformants of tobacco (TOD4) harboring a pOD4 construct.
# [8] = light-grown seedlings, dose-response
smiles,measurement,setting,value
"O=C(O)COc1ccc(Cl)cc1Cl [2,4-D]",hypocotyl elongation,[1]; concentrations lower than 10^−8 M,no effect
same,root growth,"[1]; wild-type and dwf4 seedlings, 10 days, all concentrations assayed",inhibition of root growth was evident
same,hypocotyl elongation,"[1]; wild-type and dwf4 seedlings, concentrations higher than 10^−8 M",inhibitory
"CC(C)[C@H](C)[C@@H](O)[C@H](O)[C@@H](C)[C@H]1CC[C@H]2[C@@H]3C[C@H](O)[C@H]4C[C@H](O)[C@H](O)C[C@]4(C)[C@H]3CC[C@]12C [6-OHCT, 6α-hydroxycastasterone]",rescue of the light-grown dwf4 phenotype,[2]; light-grown seedlings,rescued
"CC(C)[C@H](C)C[C@H](O)[C@@H](C)[C@H]1CC[C@H]2[C@@H]3CC[C@H]4C[C@@H](O)CC[C@]4(C)[C@H]3CC[C@]12C [6-deoxoCT, 6-deoxocathasterone]",response of dwf4 seedlings in dose-response experiment in the dark,[2],caused dramatic elongation but were less effective at rescuing dwf4 hypocotyls to wild-type phenotype
same,concentration at which dwf4 overall morphology is rescued to wild-type phenotype,[2]; [8],≥ 10^−7 M
same,concentrations at which seedlings displayed inhibition in hypocotyl and root elongation and cotyledon and leaf expansion,[2]; [8],> 10^−7 M
same,rescue of the light-grown dwf4 phenotype,[2]; light-grown seedlings,rescued
same,sensitivity of dwf4 pedicels,[3],more sensitive
"CC(C)[C@H](C)[C@@H](O)[C@H](O)[C@@H](C)[C@H]1CC[C@H]2[C@@H]3CC[C@H]4C[C@@H](O)CC[C@]4(C)[C@H]3CC[C@]12C [6-deoxoTE, 6-deoxoteasterone]",sensitivity of dwf4 pedicels,[3],more sensitive
"CC(C)[C@H](C)CC[C@@H](C)[C@H]1CC[C@H]2[C@@H]3CC(=O)[C@H]4C[C@@H](O)CC[C@]4(C)[C@H]3CC[C@]12C [6-oxoCN, 6-oxocampestanol]",response of dwf4 seedlings in dose-response experiment in the dark,[2],failed to respond
same,response of dwf4 seedlings in dose-response test,"[2]; light-grown, even at high concentrations (3×10^−6 M)",failed to respond
"C=C1C[C@]23C[C@@]1(O)CC[C@H]2[C@@]12C=C[C@H](O)[C@@](C)(C(=O)O1)[C@H]2[C@@H]3C(=O)O [GA, Gibberellic acid]",hypocotyl elongation response to GA,[4]; dwf4 seedlings germinated on 10^−5 M GA,"responded minimally, if at all"
same,hypocotyl elongation response to GA,"[4]; dwf4 seedlings, 10^−4 M compared with 10^−5 M GA",essentially saturated for elongation
same,hypocotyl elongation response to GA,[4]; wild-type seedlings at 10^−4 M GA,elongated slightly more than at 10^−5 M
same,hypocotyl elongation response to GA,[4]; wild-type seedlings germinated on 10^−5 M GA,demonstrated an elongation response
same,inflorescence stem elongation above the untreated controls,"[5]; dwf4, soil-grown plants sprayed with 1 mM GA",28%
same,inflorescence stem elongation above the untreated controls,"[5]; wild type, soil-grown plants sprayed with 1 mM GA",45%
same,GUS staining in shoots and roots of D4GL plants,[6]; 10^−4 M GA3,did not display an increase in GUS staining
same,hypocotyl length of D4GL plants,[6]; 10^−4 M GA3,longer than controls
"CC(C)[C@@H](C)[C@@H](O)[C@H](O)[C@@H](C)[C@H]1CC[C@H]2[C@@H]3COC(=O)[C@H]4C[C@H](O)[C@H](O)C[C@]4(C)[C@H]3CC[C@]12C [epi-BL, 24-epibrassinolide]",GUS activity of D4GL plants,"[6]; 10^−6 M epi-BL, tissues normally stained in untreated controls",greatly reduced GUS activity
same,hypocotyl length,[7],elongated hypocotyls
same,root length,[7],shorter than untreated control plants
